According to patent US11618743B2, “Herbicidal compounds” (SYNGENTA PARTICIPATIONS AG, priority 2017, dated 2023):

What was measured:
Experiment in all cases: Post-emergence efficacy, Method A
Format in all cases: in vivo
[1] = test system: Euphorbia heterophylla (EPHHL); details: Application rate 500 g/Ha, evaluated after 13 days; for Control of weed species EPHHL after post-emergence application (100=total damage to plant; 0=no damage to plant): Method A; for Control of weed species after post-emergence application, EPHHL: 100=total damage to plant, 0=no damage
Summary of the method: (§1)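 Injury assessed 13 days after a post-emergence spray, 0 = no damage and 100 = total damage. Spray liquid: compound in acetone/IF50 (Emulsogen EL360, N-methylpyrrolidone, Dowanol DPM), diluted with 0.25% or 1% sodium lauryl ether sulphate plus 1% ammonium sulphate.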

[2] = test system: Echinochloa crus-galli (ECHCG); details: Application rate 500 g/Ha, evaluated after 13 days; for Control of weed species ECHCG after post-emergence application (100=total damage to plant; 0=no damage to plant): Method A; for Control of weed species after post-emergence application, ECHCG: 100=total damage to plant, 0=no damage
Summary of the method: as §1

[3] = test system: Lolium perenne (LOLPE); details: Application rate 500 g/Ha, evaluated after 13 days; for Control of weed species LOLPE after post-emergence application (100=total damage to plant; 0=no damage to plant): Method A; for Control of weed species after post-emergence application, LOLPE: 100=total damage to plant, 0=no damage
Summary of the method: as §1

[4] = test system: Eleusine indica (ELEIN); details: Application rate 500 g/Ha, evaluated after 13 days; for Control of weed species ELEIN after post-emergence application (100=total damage to plant; 0=no damage to plant): Method A; for Control of weed species after post-emergence application, ELEIN: 100=total damage to plant, 0=no damage
Summary of the method: as §1

[5] = test system: Setaria faberi (SETFA); details: Application rate 500 g/Ha, evaluated after 13 days; for Control of weed species SETFA after post-emergence application (100=total damage to plant; 0=no damage to plant): Method A; for Control of weed species after post-emergence application, SETFA: 100=total damage to plant, 0=no damage
Summary of the method: as §1

[6] = test system: Digitaria sanguinalis (DIGSA); details: Application rate 500 g/Ha, evaluated after 13 days; for Control of weed species DIGSA after post-emergence application (100=total damage to plant; 0=no damage to plant): Method A; for Control of weed species after post-emergence application, DIGSA: 100=total damage to plant, 0=no damage
Summary of the method: as §1

[7] = test system: Chenopodium album (CHEAL); details: Application rate 500 g/Ha, evaluated after 13 days; for Control of weed species CHEAL after post-emergence application (100=total damage to plant; 0=no damage to plant): Method A; for Control of weed species after post-emergence application, CHEAL: 100=total damage to plant, 0=no damage
Summary of the method: as §1

[8] = test system: Amaranthus palmeri (AMAPA); details: Application rate 500 g/Ha, evaluated after 13 days; for Control of weed species AMAPA after post-emergence application (100=total damage to plant; 0=no damage to plant): Method A; for Control of weed species after post-emergence application, AMAPA: 100=total damage to plant, 0=no damage
Summary of the method: as §1

[9] = test system: Ipomoea hederacea (IPOHE); details: Application rate 500 g/Ha, evaluated after 13 days; for Control of weed species IPOHE after post-emergence application (100=total damage to plant; 0=no damage to plant): Method A; for Control of weed species after post-emergence application, IPOHE: 100=total damage to plant, 0=no damage
Summary of the method: as §1

Compound	Control of weed species EPHHL after post-emergence application (100=total damage to plant; 0=no damage to plant) [1]	Control of weed species ECHCG after post-emergence application (100=total damage to plant; 0=no damage to plant) [2]	Control of weed species LOLPE after post-emergence application (100=total damage to plant; 0=no damage to plant) [3]	Control of weed species ELEIN after post-emergence application (100=total damage to plant; 0=no damage to plant) [4]	Control of weed species SETFA after post-emergence application (100=total damage to plant; 0=no damage to plant) [5]	Control of weed species DIGSA after post-emergence application (100=total damage to plant; 0=no damage to plant) [6]	Control of weed species CHEAL after post-emergence application (100=total damage to plant; 0=no damage to plant) [7]	Control of weed species AMAPA after post-emergence application (100=total damage to plant; 0=no damage to plant) [8]	Control of weed species IPOHE after post-emergence application (100=total damage to plant; 0=no damage to plant) [9]	Control of weed species after post-emergence application, EPHHL [1]	Control of weed species after post-emergence application, ECHCG [2]	Control of weed species after post-emergence application, ELEIN [4]	Control of weed species after post-emergence application, SETFA [5]	Control of weed species after post-emergence application, DIGSA [6]	Control of weed species after post-emergence application, CHEAL [7]	Control of weed species after post-emergence application, AMAPA [8]	Control of weed species after post-emergence application, LOLPE [3]	Control of weed species after post-emergence application, IPOHE [9]
COC(=O)C[n+]1ccc(-c2ncccn2)cn1.[Br-] [Compound A2, methyl 2-(4-pyrimidin-2-ylpyridazin-1-ium-1-yl)acetate bromide]	90	50	0	30	80	40	20	60	10									
CCOP(=O)(CC[n+]1ccc(-c2cnccn2)cn1)OCC.O=C([O-])C(F)(F)F [Compound A8]	10	10	0	20	20	20	10	10	10									
O=C(O)CC[n+]1ccc(-c2ncccn2)cn1.[Cl-] [Compound A26, 3-(4-pyrimidin-2-ylpyridazin-1-ium-1-yl)propanoic Acid Chloride]		100	90		100													
O=C(O)CC[n+]1ccc(-c2ncccn2)cn1.O=C([O-])C(F)(F)F [Compound A125, 3-(4-pyrimidin-2-ylpyridazin-1-ium-1-yl)propanoic acid 2,2,2-trifluoroacetate]			90															
CC(C)(CC(=O)O)[n+]1ccc(-c2ccncn2)cn1.O=C([O-])C(F)(F)F [Compound A189]										90	80	90	70	50	100	100		
O=C(O)C(O)C[n+]1ccc(-c2ccncn2)cn1.O=C([O-])C(F)(F)F (centres unmarked) [Compound A190]										80	60	70	40	60	80	100		
COC(=O)C(C)[n+]1ccc(-c2ncccn2)cn1.O=C([O-])C(F)(F)F (centres unmarked) [Compound A192]										40	30	30	20	30	60	90		
CC(C(=O)OC(C)(C)C)[n+]1ccc(-c2ncccn2)cn1.O=C([O-])C(F)(F)F (centres unmarked) [Compound A193]										60	10	30	10	30	60	70		
O=C(O)CC[n+]1ccc(-c2ncc(C(F)(F)F)cc2Cl)cn1.O=C([O-])C(F)(F)F [Compound A197]										10	0	10	0	20	10	100		
O=C([O-])C(F)(F)F.O=P(O)(O)CC[n+]1ccc(-c2ncccn2)cn1 [Compound A198]										100	80	80	90	80	100	100		
COC(=O)CC[n+]1ccc(-c2ccncc2)cn1.O=C([O-])C(F)(F)F [Compound A203]										50	50	60	60	70	90	100		
O=C([O-])C(F)(F)F.OCCC[n+]1ccc(-c2ncccn2)cn1 [Compound A206]										60	20	10	10	20	90	60		
Nc1cc(-c2cc[n+](CCC(=O)O)nc2)ccn1.O=C([O-])C(F)(F)F [Compound A210]										10	10	20	30	60	10	70		
CCOP(=O)(C[n+]1ccc(-c2ncccn2)cn1)OCC.O=C([O-])C(F)(F)F [Compound A230, 1-(diethoxyphosphorylmethyl)-4-pyrimidin-2-yl-pyridazin-1-ium 2,2,2-trifluoroacetate]											60	10	50	70	60	50	0	20
CCOP(=O)(O)CCC[n+]1ccc(-c2ncccn2)cn1 [Compound A232]											100	50	80	90	90	100	20	0
